Experimental data reported in US20150208658A1, “METHODS OF SOIL PEST CONTROL” (Syngenta Participations AG, priority 2012, published 2015).
Read-outs that look alike come from different tables or passages of the source.

Columns and labels:
Diabrotica balteata [1] = assay: Diabrotica balteata (Corn Rootworm): 24-well microtiter plate with artificial diet, L2 larvae, larval mortality; assay type: in vivo; settings: for pest or weed control at 200 ppm / pest or weed control at 50 µg/mL: Diabrotica balteata, 120 h; for pest or weed control at 200 ppm: read-out: control of Diabrotica balteata; for pest or weed control at 50 µg/mL: read-out: control of Diabrotica balteata at 50 ppm or less; for Control/%: comparative example
Protocol: Diabrotica balteata (Corn Rootworm)
[…] After drying, the MTP's are infested with L2 larvae (6-10 per well). After an incubation period of 5 days, samples are checked for larval mortality.
Compounds are tested according to the above method.

Diabrotica balteata [2] = assay: Diabrotica balteata (Banded Cucumber Beetle): treated corn seeds sown in soil pots, seedlings infested with 3rd stage larvae; assay type: in vivo; settings: seed treatment, 6 days incubation
Protocol: Diabrotica balteata (Banded Cucumber Beetle)
Treated corn seeds are sown in a 350 ml pot filled with soil. Two weeks after sowing phytotoxicity (lack of shoot—missing emergence) in comparison to the control is estimated and expressed in percentage. Furthermore, corn seedlings are infested with 3rd stage larvae of Diabrotica balteata. After an incubation period of 6 days survived larvae are counted and larval growth is assessed. Larval growth indicates the number of larvae with size differences between the larvae in the control and treatments, expressed in percentage.

[3] = 50 ppm or less, L2 larvae, 5 days
[4] = application rate 200 ppm (concentration in well 18 ppm), L2 larvae, 5 days

For `CC(C)C(=O)NCc1ccc(C2=NOC(c3cc(Cl)cc(Cl)c3)(C(F)(F)F)C2)cc1Cl` (stereo not shown) [Compound A2], the pest or weed control at 200 ppm (Diabrotica balteata [1]) was ≥ 80% and the pest or weed control at 50 µg/mL (Diabrotica balteata [1]) was > 80%.
`CCC(=O)NCc1ccc(C2=NOC(c3cc(Cl)cc(Cl)c3)(C(F)(F)F)C2)cc1Cl` (stereo not shown) [Compound A3] was tested, and the pest or weed control at 200 ppm (Diabrotica balteata [1]) was ≥ 80% and the pest or weed control at 50 µg/mL (Diabrotica balteata [1]) was > 80%.
`CC(=O)NCc1ccc(N2CCC(c3cc(Cl)cc(Cl)c3)(C(F)(F)F)C2)cc1C` (stereo not shown) [Compound A4, N-{4-[3-(3,5-dichlorophenyl)-3-(trifluoromethyl)pyrrolidin1-yl]-2-methyl-benzyl)acetamide] was tested, and the pest or weed control at 50 µg/mL (Diabrotica balteata [1]; [3]) was > 80% and the pest or weed control at 200 ppm (Diabrotica balteata [1]; [4]) was ≥ 80%.
`CC(=O)NCc1ccc(C2=NCC(c3cc(Cl)cc(Cl)c3)(C(F)(F)F)C2)cc1Br` (stereo not shown) [Compound A5, N-{2-bromo-4-[4-(3,5-dichlorophenyl)-4-trifluoromethyl-4,5-dihydro-3H-pyrrol-2yl]-benzyl}acetamide] was tested, and the pest or weed control at 50 µg/mL (Diabrotica balteata [1]; [3]) was > 80% and the pest or weed control at 200 ppm (Diabrotica balteata [1]; [4]) was ≥ 80%.
In the case of `C[C@H](NC(=O)C1CC1)c1ccc(N2CCC(c3cc(Cl)cc(Cl)c3)(C(F)(F)F)C2)cc1` (stereo partly drawn) [Compound B1, N-[(1S)-1-[4-[3-(3,5-dichlorophenyl)-3-(trifluoromethyl)pyrrolidin-1-yl]phenyl]ethyl]cyclopropanecarboxamide], the pest or weed control at 50 µg/mL (Diabrotica balteata [1]; [3]) is reported as > 80% and the pest or weed control at 200 ppm (Diabrotica balteata [1]; [4]) is reported as ≥ 80%.
With `CC(=O)N[C@@H](C)c1ccc(C2=NOC(c3cc(Cl)cc(Cl)c3)(C(F)(F)F)C2)cc1` (stereo partly drawn) [Compound B2, N-[(1S)-1-[4-[5-(3,5-dichlorophenyl)-5-(trifluoromethyl)-4H-isoxazol-3-yl]phenyl]ethyl]acetamide] the pest or weed control at 200 ppm (Diabrotica balteata [1]) was ≥ 80% and the pest or weed control at 50 µg/mL (Diabrotica balteata [1]) was > 80%.
In the case of `C[C@H](NC(=O)C1CC1)c1ccc(C2(C(F)(F)F)CN=C(c3cc(Cl)c(Cl)c(Cl)c3)C2)cc1` (stereo partly drawn) [Compound B3, N-[(1S)-1-[4-[5-(3,4,5-trichlorophenyl)-3-(trifluoromethyl)-2,4-dihydropyrrol-3-yl]phenyl]ethyl]cyclopropanecarboxamide], the “% larval mortality” value (Diabrotica balteata [2]; application rate 0.3 mg/seed) is reported as 80%, the pest or weed control at 50 µg/mL (Diabrotica balteata [1]; [3]) is reported as > 80% and the pest or weed control at 200 ppm (Diabrotica balteata [1]; [4]) is reported as ≥ 80%.
In the case of `C[C@H](NC(=O)C1CC1)c1ccc(N2CCC(c3cc(C(F)(F)F)cc(C(F)(F)F)c3)(C(F)(F)F)C2)cc1` (stereo partly drawn) [Compound B4, N-[(1S)-1-[4-[3-[3,5-bis(trifluoromethyl)phenyl]-3-(trifluoromethyl)pyrrolidin-1-yl]phenyl]ethyl]cyclopropanecarboxamide], the “% larval mortality” value (Diabrotica balteata [2]; application rate 0.3 mg/seed) is reported as 78%, the pest or weed control at 50 µg/mL (Diabrotica balteata [1]; [3]) is reported as > 80% and the pest or weed control at 200 ppm (Diabrotica balteata [1]; [4]) is reported as ≥ 80%.
With `N#Cc1cc(C2=NCC(c3cc(Cl)c(Cl)c(Cl)c3)(C(F)(F)F)C2)ccc1-n1cncn1` (stereo not shown) [Compound C2, 2-(1,2,4-triazol-1-yl)-5-[3-(3,4,5-trichlorophenyl)-3-(trifluoromethyl)-2,4-dihydropyrrol-5-yl]benzonitrile] the “% larval mortality” value (Diabrotica balteata [2]; application rate 0.3 mg/seed) was 44%, the pest or weed control at 50 µg/mL (Diabrotica balteata [1]; [3]) was > 80% and the pest or weed control at 200 ppm (Diabrotica balteata [1]; [4]) was ≥ 80%.
`N#Cc1cc(C2=NOC(c3cc(Cl)c(F)c(Cl)c3)(C(F)(F)F)C2)ccc1-n1cncn1` (stereo not shown) [Compound C3] was tested, and the “% larval mortality” value (Diabrotica balteata [2]; application rate 1 mg/seed) was 83%, the pest or weed control at 200 ppm (Diabrotica balteata [1]) was ≥ 80% and the pest or weed control at 50 µg/mL (Diabrotica balteata [1]) was > 80%.
With `N#Cc1cc(C2=NOC(c3cc(Cl)cc(Cl)c3)(C(F)(F)F)C2)ccc1-n1cncn1` (stereo not shown) [Compound C4] the “% larval mortality” value (Diabrotica balteata [2]; application rate 1 mg/seed) was 100%.
In the case of `N#Cc1cnn(-c2ccc(C3=NOC(c4cc(Cl)c(F)c(Cl)c4)(C(F)(F)F)C3)cc2C#N)c1` (stereo not shown) [Compound D1], the “% larval mortality” value (Diabrotica balteata [2]; application rate 1 mg/seed) is reported as 100%.
With `N#Cc1cc(C2=NOC(c3cc(Cl)c(F)c(Cl)c3)(C(F)(F)F)C2)ccc1-n1cc(F)cn1` (stereo not shown) [Compound D2] the “% larval mortality” value (Diabrotica balteata [2]; application rate 1 mg/seed) was 100%.
With `Cc1cc(C2=NOC(c3cc(Cl)cc(Cl)c3)(C(F)(F)F)C2)ccc1-n1cccn1` (stereo not shown) [Compound D5] the “control of Diabrotica balteata” value (Diabrotica balteata [1]; [4]) was “lower control”.
For `N#Cc1cc(C2=NOC(c3cc(Cl)c(F)c(Cl)c3)(C(F)(F)F)C2)ccc1-n1nc(C(F)(F)F)cc1C(F)(F)F` (stereo not shown) [Compound D10], the “control of Diabrotica balteata” value (Diabrotica balteata [1]; [4]) was “No activity”.
For `N#Cc1cc(C2=NOC(c3cc(Cl)c(F)c(Cl)c3)(C(F)(F)F)C2)ccc1-n1ccc(C(F)(F)F)n1` (stereo not shown) [Compound D11], the “control of Diabrotica balteata” value (Diabrotica balteata [1]; [4]) was “No activity”.
In the case of `CCC(=O)NC1CCc2cc(C3=NOC(c4cc(Cl)cc(Cl)c4)(C(F)(F)F)C3)ccc21` (stereo not shown) [Compound E1], the “% larval mortality” value (Diabrotica balteata [2]; application rate 0.3 mg/seed) is reported as 83%.
`CC(=O)NC1CCc2cc(C3=NCC(c4cc(Cl)cc(Cl)c4)(C(F)(F)F)C3)ccc21` (stereo not shown) [Compound E2, N-[5-[3-(3,5-dichlorophenyl)-3-(trifluoromethyl)-2,4-dihydropyrrol-5-yl]indan-1-yl]acetamide] was tested, and the pest or weed control at 50 µg/mL (Diabrotica balteata [1]; [3]) was > 80% and the pest or weed control at 200 ppm (Diabrotica balteata [1]; [4]) was ≥ 80%.
For `CCC(=O)NC1CCc2cc(C3=NCC(c4cc(Cl)cc(Cl)c4)(C(F)(F)F)C3)ccc21` (stereo not shown) [Compound E3, N-[5-[3-(3,5-dichlorophenyl)-3-(trifluoromethyl)-2,4-dihydropyrrol-5-yl]indan-1-yl]propanamide], the pest or weed control at 50 µg/mL (Diabrotica balteata [1]; [3]) was > 80% and the pest or weed control at 200 ppm (Diabrotica balteata [1]; [4]) was ≥ 80%.
In the case of `O=C(NC1CCc2cc(C3=NCC(c4cc(Cl)cc(Cl)c4)(C(F)(F)F)C3)ccc21)C1CC1` (stereo not shown) [Compound E4, N-[5-[3-(3,5-dichlorophenyl)-3-(trifluoromethyl)-2,4-dihydropyrrol-5-yl]indan-1-yl]cyclopropanecarboxamide], the pest or weed control at 50 µg/mL (Diabrotica balteata [1]; [3]) is reported as > 80% and the pest or weed control at 200 ppm (Diabrotica balteata [1]; [4]) is reported as ≥ 80%.
`O=C(NC1CCc2cc(C3=NCC(c4cc(Cl)cc(Cl)c4)(C(F)(F)F)C3)ccc21)C(F)(F)F` (stereo not shown) [Compound E5, N-[5-[3-(3,5-dichlorophenyl)-3-(trifluoromethyl)-2,4-dihydropyrrol-5-yl]indan-1-yl]-2,2,2-trifluoro-acetamide] was tested, and the pest or weed control at 50 µg/mL (Diabrotica balteata [1]; [3]) was > 80% and the pest or weed control at 200 ppm (Diabrotica balteata [1]; [4]) was ≥ 80%.
For `CCC(=O)NC1CCc2cc(N3CCC(c4cc(C(F)(F)F)cc(C(F)(F)F)c4)(C(F)(F)F)C3)ccc21` (stereo not shown) [Compound E6, N-[5-[3-[3,5-bis(trifluoromethyl)phenyl]-3-(trifluoromethyl)pyrrolidin-1-yl]indan-1-yl]propanamide], the pest or weed control at 50 µg/mL (Diabrotica balteata [1]; [3]) was > 80% and the pest or weed control at 200 ppm (Diabrotica balteata [1]; [4]) was ≥ 80%.
With `O=C(CC(F)(F)F)NC1CCc2cc(C3=NOC(c4cc(Cl)cc(Cl)c4)(C(F)(F)F)C3)ccc21` (stereo not shown) [Compound E7] the “% larval mortality” value (Diabrotica balteata [2]; application rate 0.3 mg/seed) was 60%.
In the case of `O=C(CC(F)(F)F)NC1CCc2cc(C3=NOC(c4cc(Cl)cc(Cl)c4)(C(F)(F)F)C3)ccc21` (stereo not shown) [drawing 74], the Control/% (Diabrotica balteata [1]; application rate 3 ppm) is reported as 100% and the Control/% (Diabrotica balteata [1]; application rate 12.5 ppm) is reported as 100%.
In the case of `N#Cc1cc(C2=NOC(c3cc(Cl)cc(Cl)c3)(C(F)(F)F)C2)ccc1-n1cncn1` (stereo not shown) [drawing 76], the Control/% (Diabrotica balteata [1]; application rate 3 ppm) is reported as 65% and the Control/% (Diabrotica balteata [1]; application rate 12.5 ppm) is reported as 100%.
Work on `O=C(NCC(F)(F)F)N1CCc2cc(C3=NOC(c4cc(Cl)cc(Cl)c4)(C(F)(F)F)C3)ccc21` (stereo not shown) [reference compound] yielded a Control/% (Diabrotica balteata [1]; application rate 12.5 ppm) of 65%.
With `FC(F)(F)C1(c2cc(Cl)cc(Cl)c2)CC(c2ccc(-n3cncn3)cc2)=NO1` (stereo not shown) [reference compound] the Control/% (Diabrotica balteata [1]; application rate 3 ppm) was 0% and the Control/% (Diabrotica balteata [1]; application rate 12.5 ppm) was 85%.
